We go through six compounds from patent publication US20240041042A1, “1-(PYRIDYL)-5-AZINYLPYRAZOLE DERIVATIVES, AND THEIR USE FOR CONTROL OF UNDESIRED PLANT GROWTH” (Bayer Aktiengesellschaft, priority 2020, published 2024).

Like-named read-outs stand apart in the source and are kept apart here.

What all share (format): in vivo
Data set [1] concerns Brassica napus (BRSNW). The following applies: crop plant compatibility, in comparison to untreated controls. In outline:
(§1)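 Crop injury rated visually in percent against untreated plants roughly 3 weeks after treatment (0% no effect, 100% plants dead). Compounds, as WP or EC with 0.5% additive in 600 l/ha water, were applied to the covering soil right after sowing; greenhouse growth. Suffixes a, b, c denote different dosages.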

In data set [2] the test system is Glycine max (GLXMA). The following applies: pre-emergence, crop plant compatibility, in comparison to untreated controls. In outline:
as §1

Data set [3] deals with Oryza sativa (ORYSA). The note with it: pre-emergence, crop plant compatibility, in comparison to untreated controls. A digest of the protocol: as §1
The test system of data set [4] is Triticum aestivum (TRZAS). The following applies: pre-emergence, crop plant compatibility, in comparison to untreated controls. A digest of the protocol: as §1
For data set [5], the system named is Zea mays (ZEAMX). The note with it: pre-emergence, crop plant compatibility, in comparison to untreated controls. A digest of the protocol:
as §1

Data set [6] concerns Oryza sativa (ORYSA). The note with it: crop plant compatibility. In outline: (§2)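 One-leaf-stage crops (2–3 wk post-sowing, sandy loam, greenhouse) sprayed on green parts; 0.5% additive, 600 l/ha water. Rated by eye ~3 wk later, % vs untreated; suffixes a/b/c mark different dosages.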
Data set [7] has as its system Triticum aestivum (TRZAS). The note with it: crop plant compatibility, effect vs untreated controls. A digest of the protocol:
as §2

Data set [8] concerns Zea mays (ZEAMX). The note with it: for Post-emergence action against ZEAMX in % (crop plant compatibility): 20 g/ha, effect in comparison to untreated controls; for Post-emergence action against ZEAMX in %: crop plant compatibility, effect vs untreated controls. In outline: as §2
Data set [9] deals with Glycine max (GLXMA). Kind of data set: Post-emergence crop plant compatibility, GLXMA. The note with it: for Post-emergence action against GLXMA in %: effect in comparison to untreated controls. A digest of the protocol: as §2
Data set [10] has as its system Brassica napus (BRSNW). Kind of data set: Post-emergence crop plant compatibility, BRSNW. The note with it: effect in comparison to untreated controls. As for the experimental part:
Seeds of monocotyledonous and dicotyledonous weeds and crop plants are placed in sandy loam in plastic or organic planting pots, covered with soil and cultivated in a greenhouse under controlled growth conditions. 2 to 3 weeks after sowing, the test plants are treated at the one-leaf stage. The compounds of the invention, formulated in the form of wettable powders (WP) or as emulsion concentrates (EC), are then sprayed onto the green parts of the plants as aqueous suspension or emulsion with addition of 0.5% additive at a water application rate of 600 l/ha (converted). After the test plants have been kept in the greenhouse under optimum growth conditions for about 3 weeks, the activity of the preparations is rated visually in comparison to untreated controls. For example, 100% activity=the plants have died, 0% activity=like control plants.
The observed effects on selected crop plants are reported here in comparison to the untreated controls (values in %). The appendices “a”, “b” and “c” give differentiation by dosage used with otherwise the same crop plants tested.

Data set [11] concerns Verconica persica (VERPE). Kind of data set: Pre-emergence herbicidal action against VERPE. The following applies: dosage 320 g/ha. A digest of the protocol: (§3)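 Dosages of 320 g/ha or less; pre-emergence; WP or EC in aqueous spray, 0.5% additive, 600 l/ha; greenhouse; visual % effect after ~3 wk relative to control pots.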
For data set [12], the system named is Viola tricolor (VIOTR). Kind of data set: Pre-emergence herbicidal action against VIOTR. The note with it: 320 g/ha, Viola tricolor. A digest of the protocol: as §3
Where [13] appears, read: 20 g/ha, effect vs untreated controls.
Setting [14] is: 80 g/ha, effect in comparison to untreated controls.

Regarding `CCOC(=O)COc1nn(-c2ncccc2F)c(-c2ccc(F)nc2)c1I` [Example I-55], the “Pre-emergence action against BRSNW in %” value in [1] (80 g/ha) and in [1] (320 g/ha) was 0% in each case. The “Pre-emergence action against GLXMA in %” value in data set [2] (80 g/ha) and in data set [2] (320 g/ha) was 0% throughout. In addition, the “Pre-emergence action against ORYSA in %” value in data set [3] (80 g/ha) and in [3] (320 g/ha) was 0% each time. The “Pre-emergence action against TRZAS in %” value in [4] (80 g/ha) and in data set [4] (320 g/ha) was 0% each time. Moreover, the “Pre-emergence action against ZEAMX in %” value in data set [5] (80 g/ha) and in data set [5] (320 g/ha) was 0% each time. The “Post-emergence action against ORYSA in %” value in [6] (setting [13]) and in [6] (setting [14]) was 0% in each case. For the same compound, the “Post-emergence action against TRZAS in %” value in data set [7] (20 g/ha) and in data set [7] (80 g/ha) was 0% each time. Moreover, in [8], the “Post-emergence action against ZEAMX in % (crop plant compatibility)” value is reported as 0%. In addition, the “Post-emergence action against ZEAMX in %” value in data set [8] (80 g/ha) came to 0%. Also, the “Post-emergence action against GLXMA in %” value in data set [9] (20 g/ha) and in [9] (80 g/ha) was 0% each time. Further, the “Post-emergence action against BRSNW in %” value in data set [10] (20 g/ha) and in [10] (80 g/ha) was 0% throughout.
As for `O=C(COc1nn(-c2ccnc(Cl)c2)c(-c2ccc(F)nc2)c1Br)NS(=O)(=O)CC(F)(F)F` [III-20], the “Pre-emergence action against BRSNW in %” value in data set [1] (80 g/ha) is 0%. For the same compound, the “Pre-emergence action against GLXMA in %” value in [2] (320 g/ha) was determined as 20%. Moreover, the “Pre-emergence action against ORYSA in %” value in data set [3] (80 g/ha) was found to be 0%; in data set [3] (320 g/ha) it was 10%. For the same compound, the “Pre-emergence action against TRZAS in %” value in data set [4] (80 g/ha) and in [4] (320 g/ha) was 0% each time. Besides, the “Pre-emergence action against ZEAMX in %” value in data set [5] (80 g/ha) and in data set [5] (320 g/ha) was 0% in each case. Further, the “Post-emergence action against ORYSA in %” value in data set [6] (setting [13]) and in [6] (setting [14]) was 0% throughout. In addition, the “Post-emergence action against TRZAS in %” value in data set [7] (20 g/ha) and in [7] (80 g/ha) was 0% in each case. For the same compound, the “Post-emergence action against ZEAMX in % (crop plant compatibility)” value in data set [8] amounted to 0%. The “Post-emergence action against GLXMA in %” value in data set [9] (20 g/ha) and in data set [9] (80 g/ha) was 0% in each case. The “Post-emergence action against BRSNW in %” value in [10] (20 g/ha) was 0%.
As for `COC(=O)C1CCCN(C(=O)COc2nn(-c3ccccn3)c(-c3ccc(F)nc3)c2Br)C1` (stereo not shown) [Example I-108], the “Pre-emergence action against BRSNW in %” value in data set [1] (80 g/ha) was found to be 10%; in data set [1] (320 g/ha), 20%. Further, the “Pre-emergence action against GLXMA in %” value in [2] (80 g/ha) and in [2] (320 g/ha) was 0% throughout. Also, the “Pre-emergence action against ORYSA in %” value in data set [3] (80 g/ha) came to 0%; in [3] (320 g/ha), 10%. Moreover, the “Pre-emergence action against TRZAS in %” value in data set [4] (80 g/ha) turned out to be 0%; in data set [4] (320 g/ha), 10%. Moreover, the “Pre-emergence action against ZEAMX in %” value in [5] (80 g/ha) and in data set [5] (320 g/ha) was 10% throughout. In addition, the “Post-emergence action against ORYSA in %” value was 0% in [6] (setting [13]) and 10% in [6] (setting [14]). The “Post-emergence action against TRZAS in %” value in data set [7] (20 g/ha) was determined as 0%; in data set [7] (80 g/ha), 20%. Also, the “Post-emergence action against ZEAMX in % (crop plant compatibility)” value in data set [8] was 0%. In addition, the “Post-emergence action against ZEAMX in %” value in data set [8] (80 g/ha) came out at 10%. For the same compound, the entries for the “Post-emergence action against GLXMA in %” value in [9] (20 g/ha) and in data set [9] (80 g/ha) were 0% and 10%, respectively. Also, in data set [10] (20 g/ha), the “Post-emergence action against BRSNW in %” value is given as 10%.
Consider `CCOC(=O)C1CCN(C(=O)COc2nn(-c3ccccn3)c(-c3ccc(F)nc3)c2Br)CC1` [Example I-112], for which, in data set [11], the “Pre-emergence action against VERPE in %” value is on record as 80%. Further, the “Pre-emergence action against BRSNW in %” value in data set [1] (80 g/ha) and in data set [1] (320 g/ha) was 10% in each case. Moreover, in data set [2] (320 g/ha), the “Pre-emergence action against GLXMA in %” value is given as 20%. In addition, the “Pre-emergence action against ORYSA in %” value in data set [3] (80 g/ha) was 0%; in data set [3] (320 g/ha) it was 10%. Also, the “Pre-emergence action against TRZAS in %” value turned out to be 0% in data set [4] (80 g/ha) and 10% in data set [4] (320 g/ha). The results for the “Pre-emergence action against ZEAMX in %” value in data set [5] (80 g/ha) and in [5] (320 g/ha) were 0% and 10%, respectively. Moreover, the “Post-emergence action against ORYSA in %” value in data set [6] (setting [13]) and in [6] (setting [14]) was 0% in each case. Further, the “Post-emergence action against TRZAS in %” value in data set [7] (20 g/ha) and in [7] (80 g/ha) was 0% each time. Further, the “Post-emergence action against ZEAMX in % (crop plant compatibility)” value in [8] worked out at 0%. In addition, in [8] (80 g/ha), the “Post-emergence action against ZEAMX in %” value is 10%. Also, the “Post-emergence action against GLXMA in %” value in [9] (20 g/ha) is recorded as 0%; in data set [9] (80 g/ha), 10%. Moreover, the “Post-emergence action against BRSNW in %” value in [10] (20 g/ha) is listed as 0%; in data set [10] (80 g/ha) it was 10%.
Take `O=C(CSc1nn(-c2ccccn2)c(-c2cncc(F)c2)c1Br)NS(=O)(=O)c1ccccc1` [Example I-200]: the “Pre-emergence action against VIOTR in %” value in data set [12] turned out to be 100%. The “Pre-emergence action against BRSNW in %” value in data set [1] (80 g/ha) and in [1] (320 g/ha) was 0% each time. The “Pre-emergence action against GLXMA in %” value in [2] (80 g/ha) and in [2] (320 g/ha) was 20% in each case. Besides, the “Pre-emergence action against ORYSA in %” value in data set [3] (80 g/ha) and in [3] (320 g/ha) was 20% in each case. For the same compound, the results for the “Pre-emergence action against TRZAS in %” value in data set [4] (80 g/ha) and in [4] (320 g/ha) were 0% and 10%, respectively. The “Pre-emergence action against ZEAMX in %” value in [5] (80 g/ha) and in data set [5] (320 g/ha) was 0% throughout. Also, the “Post-emergence action against ORYSA in %” value worked out at 0% in data set [6] (setting [14]) and 0% in data set [6] (320 g/ha, effect in comparison to untreated controls). The “Post-emergence action against TRZAS in %” value in [7] (80 g/ha) and in [7] (320 g/ha) was 0% each time. Besides, the “Post-emergence action against ZEAMX in %” value in data set [8] (80 g/ha) and in data set [8] (320 g/ha) was 0% throughout. For the same compound, the “Post-emergence action against GLXMA” value in data set [9] (320 g/ha, effect vs untreated controls) was 0%. For the same compound, the “Post-emergence action against GLXMA in %” value in data set [9] (80 g/ha) stood at 0%. Also, the “Post-emergence action against BRSNW in %” value came to 10% in data set [10] (80 g/ha) and 20% in data set [10] (320 g/ha).
On to `COC(=O)CN(C)C(=O)COc1nn(-c2ccnc(Cl)c2)c(-c2ccc(F)nc2)c1Br` [III-21], for which the “Pre-emergence action against BRSNW in %” value in [1] (80 g/ha) and in data set [1] (320 g/ha) was 20% in each case. Moreover, the “Pre-emergence action against GLXMA in %” value in data set [2] (80 g/ha) and in data set [2] (320 g/ha) was 0% in each case. Also, the “Pre-emergence action against ORYSA in %” value in data set [3] (80 g/ha) and in data set [3] (320 g/ha) was 0% each time. In data set [4] (80 g/ha), the “Pre-emergence action against TRZAS in %” value amounted to 20%. For the same compound, the “Pre-emergence action against ZEAMX in %” value is 0% in data set [5] (80 g/ha) and 20% in data set [5] (320 g/ha). Further, the entries for the “Post-emergence action against ORYSA in %” value in [6] (setting [13]) and in data set [6] (setting [14]) were 0% and 20%, respectively. In addition, the “Post-emergence action against TRZAS in %” value in [7] (20 g/ha) and in data set [7] (80 g/ha) was 0% throughout. Further, the “Post-emergence action against ZEAMX in % (crop plant compatibility)” value in [8] came out at 0%. Also, the “Post-emergence action against ZEAMX in %” value in [8] (80 g/ha) was 0%. Further, the “Post-emergence action against GLXMA in %” value in data set [9] (20 g/ha) and in data set [9] (80 g/ha) was 0% in each case. Also, the “Post-emergence action against BRSNW in %” value in data set [10] (20 g/ha) and in data set [10] (80 g/ha) was 0% in each case.
